Patent publication US20240277730A1, “SUPPRESSION OF COVID-19 REPLICATION BY COVID-19 ENTRY INHIBITORS” (Board of Regents of the University of Nebraska, priority 2021, published 2024)
Where “and” joins values, the source holds several entries; their conditions need not be identical. Equal values may be shown once. Entries after “also recorded” stand apart in the source; their conditions may differ.

How the values were obtained:
[1] = target: ACE2: SARS-COV-2 Spike RBD (Homo sapiens, UniProt Q9BYF1); test: ACE2: SARS-COV-2 Spike RBD inhibitor screening assay (ELISA kit); set-up: species or system SARS-COV-2 / human; settings: tested 0.25 to 5 μM in triplicate; read-out: IC50, inhibition of binding of SARS-COV-2 Spike RBD to ACE2
Chain of ACE2: SARS-COV-2 Spike RBD (Q9BYF1 18-740): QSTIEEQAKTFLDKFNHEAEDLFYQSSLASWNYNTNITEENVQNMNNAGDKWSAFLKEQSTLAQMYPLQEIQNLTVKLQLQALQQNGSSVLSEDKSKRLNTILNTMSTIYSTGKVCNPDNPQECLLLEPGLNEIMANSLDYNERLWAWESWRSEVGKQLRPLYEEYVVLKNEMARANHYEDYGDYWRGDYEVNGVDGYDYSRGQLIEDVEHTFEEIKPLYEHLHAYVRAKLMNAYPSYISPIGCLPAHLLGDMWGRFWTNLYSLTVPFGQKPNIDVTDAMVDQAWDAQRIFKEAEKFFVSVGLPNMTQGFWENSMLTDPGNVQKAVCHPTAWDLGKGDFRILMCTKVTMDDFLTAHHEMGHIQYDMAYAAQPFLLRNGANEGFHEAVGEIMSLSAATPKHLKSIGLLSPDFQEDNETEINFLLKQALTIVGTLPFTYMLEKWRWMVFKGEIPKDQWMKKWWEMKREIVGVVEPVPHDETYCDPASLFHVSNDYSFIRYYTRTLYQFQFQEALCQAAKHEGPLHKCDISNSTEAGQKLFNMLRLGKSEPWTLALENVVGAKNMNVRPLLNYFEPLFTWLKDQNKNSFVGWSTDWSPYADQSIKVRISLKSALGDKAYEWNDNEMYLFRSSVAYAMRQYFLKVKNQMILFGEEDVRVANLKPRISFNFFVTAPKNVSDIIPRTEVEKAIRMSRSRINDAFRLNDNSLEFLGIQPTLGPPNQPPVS

[2] = MTT cell viability assay, HEK293T-hACE2; format: cell-based; settings: human, HEK293T-hACE2 cells
Procedure: (§1) The MTT cell viability assay of the preferred embodiment utilized HEK-293T-hACE2. UNCN1T. Vero-STAT1 knockout, and Calu-3 cells seeded at the density of 20,000 cells/well in a 96-well plate containing 100 μl complete media specific for each cell type. Cells were incubated for 12 h at 37° C., in a humidified 5% CO2 incubator for adherence. After 12-h incubation, the media was replaced with fresh media, and HEK-293T-hACE2 cells were treated with the five compounds at concentrations ranging between 0.001 to 100 μM. The Calu-3. […] Untreated cells were considered a negative control, and DMSO treated cells were considered vehicle controls. After the treatment, cells were incubated at 37° C., in humidified 5% CO2 incubator. Seventy-two hour posttreatment. 20 μl of MTT substrate (5 mg/ml) was added to each well and incubated for 4 additional hours at 37° C., in the dark. Then the culture media was carefully removed, and blue formazan crystals were dissolved in 200 μl of DMSO, and the purple color was read at 595 nm with a reference filter of 620 nm.

[3] = MTT cell viability assay, UNCN1T; format: cell-based; settings: human, UNCN1T cells
Procedure: as §1

[4] = MTT cell viability assay, Calu-3; format: cell-based; settings: human, Calu-3 cells
Procedure: as §1

[5] = test system: pseudotyped lentiviral particles expressing Spike glycoprotein of SARS-COV-2; test: microbe, parasite or virus in culture; format: cell-based
in vitro = format: cell-based; settings: African green monkey, Vero-STAT1 knockout cells, MTT
Procedure: as §1

SARS-COV-2 [6] = test: microbe, parasite or virus in culture; format: cell-based; settings: read-out: IC50, inhibition of SARS-COV-2 replication
SARS-COV-2 [7] = format: cell-based
SARS-COV-2 [8] = test: antiviral activity against live SARS-COV-2 in UNCN1T cells (RT-qPCR); format: cell-based; settings: read-out: IC50, inhibition of SARS-COV-2 replication
SARS-COV-2 [9] = format: cell-based; remark: listed apart in the source
Hu-1 S-RBD = Hu-1 S-RBD (Severe acute respiratory syndrome coronavirus 2, UniProt P0DTC2); test: microscale thermophoresis (MST), S-RBD alone; format: binding, SARS-COV-2
[10] = Severe acute respiratory syndrome coronavirus 2

Structure (SMILES)	IC50 [1]	CC50 at 72 h [2]	CC50 at 72 h [3]	CC50 at 72 h [4]	pseudotype viral entry inhibition [5]	CC50 at 72 h (in vitro)	SARS-COV-2 infection compared with vehicle controls (SARS-COV-2 [7])	reduction in SARS-COV-2 infectivity (SARS-COV-2 [7])	further results
CCn1c(SCC(=O)N2CCCc3ccccc32)nnc1-c1cccs1 [formula (V), 1-(3,4-dihydroquinolin-1(2H)-yl)-2-((4-ethyl-5-(thiophen-2-yl)-4H-1,2,4-triazol-3-yl)lhio)elhanone]	1.91 µM	> 100 µM	–	–	–	–	–	–	–
OC(CNCCNc1ncccc1C(F)(F)F)Cn1ccc2ccccc21 (stereo not shown) [formula (VI), 1-(1H-indol-1-yl)-3-((2-((3-(trifluoromethyl)pyridin-2-yl)amino)ethyl)amino)-propan-2-ol]	> 5 µM	> 100 µM	–	–	–	–	–	–	–
CN1C(=O)c2ccccc2[S+]([O-])c2cc([N+](=O)[O-])ccc2S1(=O)=O (stereo not shown) [formula (Ia), 6-methyl-2-nitrodibenzo[d,g]-[1,6,2]dithiazocin-7(6H)-one 5,5, 12-trioxide]	< 0.25 µM and ≥ 0.25 µM	> 100 µM	> 100 µM	> 100 µM	low level of viral entry inhibition	6.21 µM	no significant difference	~40%	IC50 (SARS-COV-2 [6]; [10]): 5.35 µM; IC50 (SARS-COV-2 [6]): 2.94 µM; IC50 (SARS-COV-2 [8]; [10]): 0.67 µM; IC50 (SARS-COV-2 [8]): 1.16 µM
CN(C)/C=C1\N=C(c2cccnc2Oc2ccc(Cl)cc2)OC1=O [formula (VII), (Z)-2-(2-(4-chlorophenoxy)-pyridin-3-yl)-4-((dimethyl-amino)methylene)oxazol-5(4H)-one]	> 5 µM	> 100 µM	–	–	–	–	–	–	–
CCC(CC)COC(=O)[C@H](C)N[P@](=O)(OC[C@H]1O[C@@](C#N)(c2ccc3c(N)ncnn23)[C@H](O)[C@@H]1O)Oc1ccccc1 [RDV, remdesivir]	–	–	–	–	–	–	–	–	reduction in dosages in RDV/formula (IIa) combination (SARS-COV-2 [9]): ≥ 2.3 fold
O=C1Nc2cc(C(F)(F)F)ccc2Oc2ccsc21 [formula (IIa), 7-(trifluoromethyl)benzo[b]-thieno[2,3-f][1,4]oxazepin-10(9H)-one]	–	> 100 µM	> 100 µM	> 100 µM	significant and robust viral entry inhibition	7.13 µM	no significant difference	~40%	IC50 ([5]; Severe acute respiratory syndrome coronavirus 2, 48 h, read-out: IC50, inhibition of entry of pseudotyped lentiviral particles): 0.84 µM; binding to S-RBD alone (Hu-1 S-RBD): does not binding; also recorded: does not bind
